# Patent US12102616B2, “Psilocin mucate” (LOBE SCIENCES LTD., priority 2022, dated 2024)
# Where “and” joins values, the source holds several entries; their conditions need not be identical. Equal entries are not always repeated. Entries after “also recorded” stand apart in the source; their conditions may differ. Where two headings read alike, the source gives them in different places.
# Columns and labels:
# [1] = Stability studies on psilocin mucate capsule over a 12 month period; format: physicochemical; details: for Appearance POL-0018, Product / Assay TM-22-0392 (% Label Claim) / Total Impurities / Water Content by cKF TM-22-0012, Mean (2) / Water Content by cKF TM-22-0012, Prep 1 and 2 / Impurities TM-22-0392 (individual impurities): capsules
# Procedure: Additional stability studies were performed on psilocin mutate (also known as psilocin mucic acid salt or conjugate or psilocin galactaric acid salt or conjugate) capsule over a 12 month period.
# Appearance was evaluated by viewing of the sample on a watchglass over a black and white background.
# Assay conditions for Test/Method TM-022-0392 assessing stability and impurities were as follows: • Mobile phase: MPA: 945 mL water, 5 mL H3PO4, pH to 5.7 with NaOH; MPB: Acetonitrile • Diluent: 80:20 Water:MeOH • Standard: 0.4 mg/mL Psilocin Mucic RS in Diluent • Sample: 0.4 mg/mL Psilocin Mucic API in Diluent • HPLC Conditions are depicted in Table 3.
# • System suit: RSD NMT 2.0% (5 injections), Tailing NMT 2.0, Plate count NLT 10000
# Calculations were against a bracketing external standard.
# Identity of psilocin mucate was verified by ultraviolet (UV) assessment, wherein the UV spectrum of the main peak in the standard matched the UV spectrum of the main peak in the sample and by retention time wherein the retention time ratio was 0.98-1.02.
# Swiss Albino Mice = assay: 28-day oral (gavage) toxicity study with 14-day recovery
# healthy subjects = assay: Mood assessment, MMSE test and adverse events in the phase one study
# [2] = Phase one single-dose pharmacokinetic study of capsules containing psilocin mucic acid conjugate (plasma psilocin)
# [3] = cited from earlier work; for AUC / Tmax / Cmax: psilocin
# [4] = Usona's investigator's brochure; cited from earlier work
# [5] = 2, 10 and 20 mg/kg bw/day oral, 28 days
# [6] = females G4R vs G1R, considered not related
# [7] = males G4R vs G1R, considered not related
# [8] = single oral dose equivalent to 2 mg psilocin
# [9] = plasma psilocin, 2 mg p.o. PM fasted
# [10] = 0.224 mg/kg p.o. PY fasted by Hasler
structure (smiles),measurement,setting,value
CN(C)CCc1c[nH]c2cccc(O)c12.O=C(O)[C@@H](O)[C@H](O)[C@H](O)[C@@H](O)C(=O)O [psilocin mucate],stable for (duration of stability),[1],at least 12 months
same,"Appearance POL-0018, Product",[1]; 1 Month,Conforms
same,Assay TM-22-0392 (% Label Claim),[1]; 1 Month,98.8%
same,Total Impurities,[1]; 1 Month,0.05%
same,"Water Content by cKF TM-22-0012, Mean (2)",[1]; 1 Month,0.9 % w/w
same,"Water Content by cKF TM-22-0012, Prep 1 and 2",[1]; 1 Month,0.9 % w/w and 0.8 % w/w
same,Impurities TM-22-0392 (individual impurities),"[1]; 1 Month, impurity at RRT 1.11",RRT 1.11/0.05%
same,"Appearance POL-0018, Product",[1]; 3 Months,Conforms
same,Assay TM-22-0392 (% Label Claim),[1]; 3 Months,101.1%
same,Total Impurities,[1]; 3 Months,<0.05%
same,"Water Content by cKF TM-22-0012, Mean (2)",[1]; 3 Months,1.6 % w/w
same,"Water Content by cKF TM-22-0012, Prep 1 and 2",[1]; 3 Months,2.0 % w/w and 1.1 % w/w
same,Impurities TM-22-0392 (individual impurities),"[1]; 3 Months, all impurities",All < 0.05%
same,"Appearance POL-0018, Product",[1]; 5 Months,Conforms
same,Assay TM-22-0392 (% Label Claim),[1]; 5 Months,103.2%
same,Total Impurities,[1]; 5 Months,<0.05%
same,"Water Content by cKF TM-22-0012, Mean (2)",[1]; 5 Months,1.3 % w/w
same,"Water Content by cKF TM-22-0012, Prep 1 and 2",[1]; 5 Months,1.2 % w/w and 1.3 % w/w
same,Impurities TM-22-0392 (individual impurities),"[1]; 5 Months, all impurities",All < 0.05%
same,"Appearance POL-0018, Product",[1]; 6 Months,Conforms
same,Assay TM-22-0392 (% Label Claim),[1]; 6 Months,98.8%
same,Total Impurities,[1]; 6 Months,<0.05%
same,"Water Content by cKF TM-22-0012, Mean (2)",[1]; 6 Months,1.4 % w/w
same,"Water Content by cKF TM-22-0012, Prep 1 and 2",[1]; 6 Months,1.4 % w/w
same,Impurities TM-22-0392 (individual impurities),"[1]; 6 Months, all impurities",All < 0.05%
same,"Appearance POL-0018, Product",[1]; 12 Months,Conforms
same,Assay TM-22-0392 (% Label Claim),[1]; 12 Months,98.4%
same,Total Impurities,[1]; 12 Months,<0.05%
same,"Water Content by cKF TM-22-0012, Mean (2)",[1]; 12 Months,1.3 % w/w
same,"Water Content by cKF TM-22-0012, Prep 1 and 2",[1]; 12 Months,1.2 % w/w and 1.3 % w/w
same,Impurities TM-22-0392 (individual impurities),"[1]; 12 Months, all impurities",All < 0.05%
same,Total Impurities,[1]; Initial,0.08%
same,"Water Content by cKF TM-22-0012, Mean (2)",[1]; Initial,1.2 % w/w
same,Impurities TM-22-0392 (individual impurities),"[1]; Initial, impurity at RRT 1.12",RRT 1.12/0.08%
same,Assay TM-22-0392 (% Label Claim),"[1]; Initial, specification 90.0-110.0%",98.8%
same,"Water Content by cKF TM-22-0012, Prep 1 and 2","[1]; Initial, specification NMT 10.0%",1.1 % w/w and 1.2 % w/w
same,"Appearance POL-0018, Product","[1]; Initial, specification white to light brown powder partially filling white opaque capsules",Conforms
same,Functional observation battery,Swiss Albino Mice; [5],No treatment related effects were observed
same,Mortality and morbidity check,Swiss Albino Mice; [5],No mortality or morbidity was observed at any dose level
same,"effects on general health, body weight, feed consumption, clinical pathology, gross pathology and histopathology","Swiss Albino Mice; 28 consecutive days, both sexes",no psilocin mucate related effects
same,"Histopathology, overall",Swiss Albino Mice; G1 and G4 main group organs/tissues,no psilocin mucate related histopathological changes
same,histopathological lesions (background findings),"Swiss Albino Mice; G4 female, considered toxicologically irrelevant",single incidence of cortical cyst (unilateral) in kidneys; also recorded: presence of luteal cyst (unilateral) in ovaries
same,AChE,"Swiss Albino Mice; G4 male and G3 female animals vs vehicle control, considered non-psilocin mucate related",statistically significant increase
same,body weight gain,"Swiss Albino Mice; G4 males (20 mg/kg bw/day), day 1-8, vs control, not considered adverse",statistically significant decrease
same,net body weight gain (day 1 to day 43),"Swiss Albino Mice; G4 recovery females vs control, not due to treatment",statistically significant increase
same,foot splay measurement,"Swiss Albino Mice; G4 recovery group females (20 mg/kg bw/day), last day of recovery, vs control, considered random biological variation",statistically significant increase
same,Gross pathology,"Swiss Albino Mice; all groups, both sexes",No gross changes were observed
same,"Clinical chemistry parameters, overall",Swiss Albino Mice; both sexes,No psilocin mucate related changes were observed
same,"Hematology parameters, overall",Swiss Albino Mice; both sexes,No psilocin mucate related changes were observed
same,Coagulation parameters,"Swiss Albino Mice; both sexes, main and recovery group",No statistically significant changes were observed
same,total bile acids,"Swiss Albino Mice; females G3 and G4 vs G1, considered not related",statistically significant increase
same,aspartate aminotransferase and inorganic phosphorous,Swiss Albino Mice; [6],decrease
same,"creatinine, total protein, albumin and calcium",Swiss Albino Mice; [6],increase
same,mean corpuscular hemoglobin,Swiss Albino Mice; [6],increase
same,relative adrenals and brain weight,Swiss Albino Mice; [6],decrease
same,absolute and relative thymus weight,"Swiss Albino Mice; females G4 vs G1, considered not related",statistically significant increase
same,white blood cells and platelets,"Swiss Albino Mice; females G4 vs vehicle control, considered not related",statistically significant increase
same,Ophthalmological examination,Swiss Albino Mice; main and recovery group animals,No ocular abnormalities were observed
same,relative eosinophil count,"Swiss Albino Mice; males G2 and G4 vs vehicle control G1, considered not related",statistically significant decrease
same,chloride,"Swiss Albino Mice; males G3 vs G1, considered not related",decrease
same,absolute and relative lungs weight and absolute prostate with seminal vesicles and coagulating gland weight,Swiss Albino Mice; [7],statistically significant decrease
same,red blood cells and hemoglobin,Swiss Albino Mice; [7],statistically significant increase
same,reticulocytes,Swiss Albino Mice; [7],decrease
same,inorganic phosphorous,"Swiss Albino Mice; males G4 vs vehicle control, considered not related",statistically significant increase
same,feed consumption,"Swiss Albino Mice; males, G4 recovery group, day 29-36, vs control, considered incidental",statistically significant increase
same,"Acetyl cholinesterase (AChE) level, overall","Swiss Albino Mice; mouse, in vivo",No psilocin mucate related changes were observed
same,NOAEL translated to a dose for an average person of 70 kg,"Swiss Albino Mice; mouse, in vivo","1,400 mg"
same,"Urinalysis parameters, overall","Swiss Albino Mice; mouse, in vivo",No psilocin mucate related changes were observed
same,NOAEL,"Swiss Albino Mice; oral gavage, 28 consecutive days",20 mg/kg bw/day
same,urine pH,"Swiss Albino Mice; recovery female group (G4R) vs vehicle control recovery group, considered not related",statistically significant decrease
same,Clinical signs and detailed clinical signs observation,Swiss Albino Mice; treatment and recovery period,No clinical signs of toxicity were observed
same,FEELING STATUS,"healthy subjects; individual subjects 01-10, single oral capsule, 2 mg psilocin equivalent, assessed by psychiatrist","Feel little beet happier, better; also recorded: Feel calm, less thoughts, happier; also recorded: Euphoric, better mood, it helps with; also recorded: Euphories, better mood, sleepy, feel; also recorded: Sleepy, better thoughts, less worried; also recorded: Did not feel change in mood but feeling; also recorded: More relaxed, want to drink sweet; also recorded: Better mood, feels hyper sexual; also recorded: Felt high mood, now they feel in good; also recorded: Less anxious, better mood, increase"
same,MMSE,"healthy subjects; individual subjects 01-10, single oral capsule, 2 mg psilocin equivalent, hallucinogenic substance expected to lower score below 25",30 (3×) and 28 (3×) and 27 (2×) and 29 (2×)
same,adverse events: dizziness,healthy subjects; [8],one subject reported slight and transient dizziness
same,serious adverse effects,healthy subjects; [8],no serious adverse effects were reported
same,subjects with no hallucinogenic effect,healthy subjects; [8],9 of the 10
same,food effect upon oral administration,[2]; from comparison with published psilocybin studies,no food effect
same,Cmax as compared to an equal amount of psilocin generated by the metabolism of psilocybin,[2]; oral,higher Cmax
same,decrease in Tmax as compared to an equivalent formulation of psilocybin,[2]; oral,≥ 2 fold
same,delivered concentrations of psilocin compared with intravenous psilocybin,[2]; oral formulation,equivalent to intravenous doses of psilocybin
same,patient-to-patient variability as compared to psilocybin treatment,[2]; oral formulation,decreased patient-to-patient variability
same,AUC,[2]; [9],11.189 μG H/L
same,Tmax,[2]; [9],45 min
same,Cmax,"[2]; plasma psilocin, 2 mg p.o. PM fasted, psilocin dose 2 mg, 0.026 mg/kg p.o.",3.66 ng/mL
same,time until psilocin is essentially eliminated from circulation,"[2]; single oral capsule, 2 mg psilocin equivalent",less than 12 hours
CN(C)CCc1c[nH]c2cccc(OP(=O)(O)O)c12 [psilocybin],AUC,[3]; [10],32.71 μG H/L
same,Tmax,[3]; [10],105 min
same,Cmax,"[3]; 0.224 mg/kg p.o. PY fasted by Hasler, psilocin dose 0.161 mg/kg p.o.",8.2 ng/mL
same,AUC,[3]; 1 mg i.v. PY by Hasler,4 μG H/L
same,Tmax,[3]; 1 mg i.v. PY by Hasler,1.9 min
same,Cmax,"[3]; 1 mg i.v. PY by Hasler, psilocin dose 0.718 mg, 0.01 mg/kg i.v.",12.9 ng/mL
same,AUC,[3]; 25 mg p.o. PY fasted by Holze,83 μG H/L
same,Tmax,[3]; 25 mg p.o. PY fasted by Holze,114 min
same,Cmax,"[3]; 25 mg p.o. PY fasted by Holze, psilocin dose 17.95 mg, 0.256 mg/kg",17 ng/mL
same,"bioavailability, generally reported",[3]; varies from paper to paper,50-80%
same,lethal dose 50% (LD50),[4],285 mg/kg
